According to patent US20240279710A1, “FLUORESCENT PROBES” (TOHOKU TECHNO ARCH CO., LTD., priority 2021, published 2024):

Legend:
calpain [1] = assay: Rat NMDA injury model, ocular fundus imaging; format: in vivo; details: for staining of nerve cells with HMRG in ocular fundus: probe 18.3 μM, 20 minutes after administration; for number of HMRG-positive cells in ocular fundus: FIG. 16
Experimental: Black Brown-Norway rats were each subjected to general anesthesia with isoflurane. PBS or N-methyl-D-aspartate (NMDA) (10 mM, 2 μL) was administered into an eye of the rat. 6 Hours after that, the rat was anesthetized with a mixed liquid of ketamine and xylazine again, and Compound 19 (18.3 μM, 3 μL) was administered into the eye. Images of an ocular fundus were taken with F-10 (a confocal biomicroscope manufactured by Nidek Co., Ltd.) before the administration of Compound 19 and 20 minutes after the administration.

[2] = target: T1, recombinant human cathepsin B (Homo sapiens, UniProt P07858); assay: Fluorescence assay with cathepsin B; format: biochemical; details: 10 μM probe, 880 ng/mL cathepsin B, 50 mM TRIS pH 7.4, 37° C., excitation 475 nm, fluorescence 500-550 nm; FIG. 37
T1 construct: purchased R&D Systems 953-CY
Experimental: The fluorescence assay of Compound 19 with time was performed. Specifically, 880 ng/mL of recombinant human cathepsin B (953-CY; R&D Systems, MN, USA) was added to a 50 mM TRIS buffer (pH: 7.4, 2 mM EGTA, 2 mM DTE) containing 10 μM of the synthesized fluorescent probe to perform an enzyme reaction at 37° C. The same operations as those described above except that cathepsin B was not added were performed as a negative control. The results of the measurement of a change in fluorescence intensity with time by cathepsin B are shown in FIG. 37 (excitation wavelength: 475 nm, fluorescence wavelength: from 500 nm to 550 nm).

[3] = Optical characteristics: absorption and fluorescence spectrum at each pH; format: physicochemical; details: 10 mM phosphate buffer, pH 2 to 11, 1 μM probe, 1% DMSO, excitation 490 nm; neutral condition
Experimental: The absorption spectrum and fluorescence spectrum of Compound 19 at each pH were each measured. Specifically, a measurement solution was prepared by adding a solution (0.1 mM) of Compound 19 in DMSO to a 10 mM phosphate buffer at each pH in the pH range of from 2 to 11 so that the final probe concentration became 1 μM, and the final DMSO concentration became 1%. The fluorescence spectrum of the measurement solution was measured at an excitation wavelength of 490 nm.

SH-SY5Y cells = assay: Live cell imaging of calpain activity in SH-SY5Y cells; format: cell-based; details: 5 μM probe, 10 minutes incubation, FIG. 12
Experimental: Whether or not the improvement in enzymatic reactivity between the compound of the present invention and a calpain confirmed by the above-mentioned experiment remained the same even in a cell was verified. Calpain activity imaging in SH-SY5Y cells was performed on each of Compounds 16 and 19. Specifically, the SH-SY5Y cells (American Type Culture Collection, VA, USA) were cultured in a mixed medium of Dulbecco's modified eagle medium and Ham's F-12 medium (DMEM/F-12; Thermo Fisher Scientific, Inc.) (containing 10% fetal bovine serum (FBS; Thermo Fisher Scientific, Inc., MA, USA) and 100 U/mL penicillin-100 μg/mL streptomycin (PS; Thermo Fisher Scientific, Inc.)) under the conditions of 37° C. and 5% CO2-95% air. 6×10^4 to 8×10^4 Cells/well of the cells were seeded in a multiwell plate (μ-Plate 96 Well; ibidi, Grafelfing, Germany) coated with poly-D-lysine (Thermo Fisher Scientific, Inc.) and laminin (BD Biosciences, CA, USA), and were preincubated in a culture solution. Immediately after the removal of the culture solution in the wells, 200 μL of an assay solution (a culture solution containing a 5 μM probe) was added thereto, and the cells were incubated under the conditions of 37° C. and 5% CO2-95% air. 10 Minutes after that, a bright field image and a fluorescence image were taken with a confocal microscope (LSM 710, Carl Zeiss AG, Oberkochen, Germany).
Calpain activity imaging in SH-SY5Y cells was performed on each of Compounds 20 to 23, Compound 38, and Compound 56 in the same manner as in Example 9. In the case of each of Compounds 20 to 23 and Compound 38, a bright field image and a fluorescence image were taken after 30 minutes of incubation of the cells, and in the case of Compound 56, such images were taken after 20 minutes of incubation thereof.

calpain [4] = assay: Rabbit NMDA injury model, ocular fundus imaging; format: in vivo; details: for staining of nerve cells with HMRG in ocular fundus: 30, 45 and 60 minutes after probe into the eye (Compound 19 18.3 μM 19 μL; Compound 16 20 μM 19 μl or 38 μl)
Experimental: Black Dutch rabbits were each subjected to general anesthesia with a mixed liquid of ketamine and xylazine. N-Methyl-D-aspartate (NMDA) (12 mM, 50 μL) or PBS was administered into an eye of the rabbit. 9 Hours after that, the rabbit was anesthetized with a mixed liquid of ketamine and xylazine again, and Compound 19 (18.3 μM, 19 μL), Compound 16 (20 μM, 19 μl), or Compound 16 (20 μM, 38 μl) was administered into the eye. Images of an ocular fundus were taken with Mirante (a confocal scanning diode laser ophthalmoscope manufactured by Nidek Co., Ltd.) before the administration of each of the compounds and after the lapse of a predetermined time from the administration.

[5] = rabbits administered NMDA, Compound 19 18.3 μM 19 μL, FIG. 23

- absorption spectrum and fluorescence spectrum at each pH [3]: mainly colorless and nonfluorescent
SMILES: COCC(=O)N[C@@H](CC(C)C)C(=O)N[C@@H](CCSC)C(=O)Nc1ccc2c(c1)Oc1cc(N)ccc1C21OCc2ccccc21 (some centres unmarked) [Compound 19]
- staining of nerve cells with HMRG in ocular fundus (calpain [1]; rats administered NMDA (10 mM, 2 μL), 3 μL into the eye 6 hours later): many of the nerve cells were clearly stained
- number of HMRG-positive cells in ocular fundus (calpain [1]; rats administered NMDA): significant increase
- number of HMRG-positive cells in ocular fundus (calpain [1]; rats administered PBS): extremely small
- staining of nerve cells with HMRG in ocular fundus (calpain [1]; rats administered PBS, 3 μL into the eye): substantially no nerve cells are stained
- change in fluorescence intensity with time by cathepsin B [2]: functioned as a fluorescent probe for cathepsin B
- calpain activity imaging in SH-SY5Y cells (SH-SY5Y cells; confocal microscope): enabled the observation of calpain activity in the SH-SY5Y cells
- clarity of live cell imaging compared to Compound 16 (SH-SY5Y cells): Clear imaging
- number of HMRG-positive cells in PBS rabbits compared to NMDA rabbits (calpain [4]; Compound 19 (19 μL) and Compound 16 (38 μl), FIG. 23): significantly reduced
- reactivity in relation to dose, compared with Compound 16 (calpain [4]; rabbit NMDA injury model, administration into the eye): satisfactory reactivity even when used in a dose smaller than that of Compound 16
- staining of nerve cells with HMRG in ocular fundus (calpain [4]; rabbits administered NMDA (12 mM, 50 μL)): many nerve cells were clearly stained with HMRG
- number of HMRG-positive cells compared to Compound 16 (19 μl) (calpain [4]; [5]): significantly increased
- number of HMRG-positive cells compared to Compound 16 (38 μl) (calpain [4]; [5]): tended to increase
- staining of nerve cells with HMRG in ocular fundus (calpain [4]; rabbits administered PBS): substantially no staining of the nerve cells with HMRG
